The values that follow are results of earlier work, collected in patent US20060003361A1, “SMVT transporters expressed in cancer cells” (Xenoport, Inc., priority 2004, published 2006).

The target of this data set is T1, SMVT (Homo sapiens, UniProt Q9Y289).
T1 sequence (Q9Y289 1-635): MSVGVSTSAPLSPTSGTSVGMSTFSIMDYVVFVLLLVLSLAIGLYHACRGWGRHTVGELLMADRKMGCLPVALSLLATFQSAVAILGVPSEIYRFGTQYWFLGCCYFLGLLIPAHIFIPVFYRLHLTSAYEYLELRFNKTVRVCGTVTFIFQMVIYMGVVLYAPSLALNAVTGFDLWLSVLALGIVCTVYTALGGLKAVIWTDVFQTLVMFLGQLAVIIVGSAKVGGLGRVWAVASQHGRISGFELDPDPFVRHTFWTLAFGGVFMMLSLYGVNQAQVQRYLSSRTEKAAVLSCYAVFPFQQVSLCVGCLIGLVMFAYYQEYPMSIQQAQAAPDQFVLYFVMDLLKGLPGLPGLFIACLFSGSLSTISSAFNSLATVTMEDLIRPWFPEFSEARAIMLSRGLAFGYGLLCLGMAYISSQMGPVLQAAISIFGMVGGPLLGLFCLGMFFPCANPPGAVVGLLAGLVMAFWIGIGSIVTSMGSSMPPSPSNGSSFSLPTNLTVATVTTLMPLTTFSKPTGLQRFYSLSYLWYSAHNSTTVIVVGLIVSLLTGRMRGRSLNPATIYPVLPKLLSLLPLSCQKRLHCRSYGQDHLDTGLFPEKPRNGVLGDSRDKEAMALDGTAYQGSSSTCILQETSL

Turning to `O=C(O)CCCC[C@@H]1SC[C@@H]2NC(=O)N[C@@H]21` [Biotin], the “Reported Affinity for SMVT” value is given as 0.01 mM.

With `O=C(O)CCCc1ccccc1` [4-phenyl-butyric acid], the “Reported Affinity for SMVT” value was 0.04 mM.

Turning to `CC(C)(CO)[C@@H](O)C(=O)NCCC(=O)O` [Pantothenic acid], the “Reported Affinity for SMVT” value is 0.03 mM.
